From US20200253907A1, “Compositions and Methods for Treating Neurodegenerative Diseases” (The Regents of the University of California, priority 2017, published 2020)
“Also recorded” adds a separate entry of the source.

Tests used:
GMC101 C. elegans strain = assay: Paralysis assay in GMC101 C. elegans model of Alzheimer's disease; assay type: in vivo; conditions: for GMC101 paralysis: 4 mM, FIG. 3; for paralysis caused by Aβ: single agent, FIG. 4 (alanine 1-8 mM), FIG. 5 (KIC 2-32 mM)
Experimental: To investigate the effects of small molecules in a C. elegans model of Alzheimer's disease, the GMC101 C. elegans strain, developed by Gawain McColl at the University of Melbourne, Australia, was used. The GMC101 C. elegans strain expresses the full length human amyloid beta 1-42 protein in the body wall muscle cells, leading to a fully penetrant age-progressive paralysis. These worms were first age-synchronized by performing an egg prep (mixed <100 gravid worms in 70 μl M9 buffer, 25 μl bleach and 5 μl 10 N NaOH). […] All worms were transferred to fresh plates on Day 5.

[1] = test system: differentiated PC-12 cells; assay: Amyloid-beta induced cell death in differentiated PC-12 cells; assay type: cell-based; conditions: 200 μM, pretreated 2 hours before Aβ42 or Aβ25-35; 24-hour incubation; control cells 48.5±1.8%; FIG. 16
Description: Overnight after seeding, cells were differentiated with NGF in 0.5% FCS, RPMI 1640 medium for 7 days.

Structure (SMILES): CC[C@H](O)C(=O)O [2-HB, 2-hydroxybutyrate]
- GMC101 paralysis (GMC101 C. elegans strain): can also delay GMC101 paralysis

Structure (SMILES): CC(C)CC(=O)C(=O)O [KIC, α-ketoisocaproate]
- beneficial effect in GMC101 (paralysis) (GMC101 C. elegans strain; 16 mM KIC alone): not observed to exhibit beneficial effects; also recorded: does not exert a beneficial effect
- paralysis caused by Aβ (GMC101 C. elegans strain): reduces paralysis caused by Aβ

Structure (SMILES): CCCCCCCCOC(=O)C(=O)CCC(=O)O [octyl α-KG, octyl α-ketoglutarate]
- cells remaining alive (viable) [1]: about 73±2.2%

Structure (SMILES): CCC(=O)C(=O)O [α-KB, α-ketobutyrate]
- Aβ caused paralysis (GMC101 C. elegans strain; about 2 mM, FIG. 2): can delay Aβ caused paralysis

Structure (SMILES): C[C@H](N)C(=O)O [alanine, L-alanine]
- health span of GMC101 (GMC101 C. elegans strain; 2 mM alanine alone, FIG. 9): can extend health span of GMC101
- health span of GMC101 (GMC101 C. elegans strain; 4 mM alanine alone, FIG. 10): can extend health span of GMC101
- health span of GMC101 (GMC101 C. elegans strain; 8 mM alanine alone, FIG. 11): can extend health span of GMC101
- paralysis caused by Aβ (GMC101 C. elegans strain): can reduce paralysis caused by Aβ

Structure (SMILES): CC(O)CC(=O)O (stereo not shown) [3-HB, 3-hydroxybutyrate, reference compound]
- GMC101 paralysis (GMC101 C. elegans strain): delay in paralysis is not observed

Structure (SMILES): CC(C)C(=O)C(=O)O [KIV, α-ketoisovalerate]
- GMC101 health span (GMC101 C. elegans strain; 8 mM, FIG. 6): can extend GMC101 health span

Structure (SMILES): O=C(O)CCC(=O)C(=O)O [α-KG, α-ketoglutarate]
- health span of GMC101 C. elegans strain (GMC101 C. elegans strain; 2 mM, FIG. 1): can extend the health span
- delay of paralysis compared to vehicle treatment (GMC101 C. elegans strain; 8 mM on NGM plates, worms shifted to 25° C.): 22%
